Results as given in PubChem BioAssay AID248 (DTP/NCI, 2004).
Several values for one entry are separate records, joined by “and”; a condition that tells them apart may be missing. Equal values may be shown once. Toxic doses and inconclusive results are not listed. Cut-off read from the data, not from the text of the source: active = T/C of 150% or more; inactive = T/C below 125%.

Tested on: L1210 leukemia ip in BDF1 mice, survival T/C
Assay: NCI In Vivo Anticancer Drug Screen. Data for tumor model L1210 Leukemia (intraperitoneal) in B6D2F1 (BDF1) mice
Details: endpoint: mean survival time, higher = longer survival
Procedure, shortened: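 Survival endpoint. Drug-treated group vs vehicle group, expressed as T divided by C. Tumor passaged by transplantation.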

[1] = dose: 100.0 mg/kg/injection, schedule: Q01DX009 (ip), vehicle: saline with Tween-80
[2] = dose: 100.0 mg/kg/injection, schedule: Q01DX001 (ip), vehicle: saline with Tween-80
[3] = dose: 200.0 mg/kg/injection, schedule: Q01DX001 (ip), vehicle: saline with Tween-80
[4] = dose: 100.0 mg/kg/injection, schedule: Q04DX003 (ip), vehicle: saline with Tween-80
[5] = dose: 200.0 mg/kg/injection, schedule: Q01DX009 (ip), vehicle: saline with Tween-80
[6] = dose: 200.0 mg/kg/injection, schedule: Q04DX003 (ip), vehicle: saline with Tween-80
[7] = dose: 400.0 mg/kg/injection, schedule: Q01DX009 (ip), vehicle: saline with Tween-80

Measured: T/C

COc1ccc(OC)c(NC(=O)NNC(=O)CNC(=O)Nc2cccc(C)n2)c1
inactive: dose: 25.0 mg/kg/injection, schedule: Q01DX009 (ip), vehicle: saline with Tween-80 94 % of control | dose: 50.0 mg/kg/injection, schedule: Q01DX009 (ip), vehicle: saline with Tween-80 94 % of control | [1] 90 % of control

c1ccc(-n2ncn[n+]2-c2ccccc2)cc1
inactive: dose: 10.0 mg/kg/injection, schedule: Q01DX001 (ip), vehicle: saline 98 % of control | dose: 20.0 mg/kg/injection, schedule: Q01DX001 (ip), vehicle: saline 90 % of control | dose: 40.0 mg/kg/injection, schedule: Q01DX001 (ip), vehicle: saline 95 % of control | dose: 80.0 mg/kg/injection, schedule: Q01DX001 (ip), vehicle: saline 109 % of control

COc1ccc(C[C@H]2NC[C@H](O)[C@H]2OC(C)=O)cc1
inactive: dose: 25.0 mg/kg/injection, schedule: Q01DX Z (ip), vehicle: saline 109 % of control | dose: 50.0 mg/kg/injection, schedule: Q01DX Z (ip), vehicle: saline 102 % of control | dose: 100.0 mg/kg/injection, schedule: Q01DX Z (ip), vehicle: saline 109 % of control | dose: 200.0 mg/kg/injection, schedule: Q01DX Z (ip), vehicle: saline 92 % of control and 107 % of control

C/C(CCl)=N\Nc1ccc([N+](=O)[O-])cc1[N+](=O)[O-]
inactive: [2] 101 % of control | [3] 98 % of control

COc1ccc(OC)c(NC(=O)NNc2c([N+](=O)[O-])cc(C(F)(F)F)cc2[N+](=O)[O-])c1
inactive: dose: 100.0 mg/kg/injection, schedule: Q01DX009 (ip), vehicle: other 97 % of control | dose: 200.0 mg/kg/injection, schedule: Q01DX009 (ip), vehicle: other 89 % of control

O=C(Nc1ccccc1)Sc1ccccc1
inactive: dose: 62.5 mg/kg/injection, schedule: Q01DX001 (ip), vehicle: Klucel (hydroxypropylcellulose) (HPC) 97 % of control

O=c1cc(Cc2ccccc2)[nH]c(=S)[nH]1
inactive: [1] 94 % of control | [4] 99 % of control | [5] 93 % of control | [6] 97 % of control | [7] 96 % of control | dose: 400.0 mg/kg/injection, schedule: Q04DX003 (ip), vehicle: saline with Tween-80 100 % of control

CCOC(=O)c1c[nH]c2c(Cl)ccc(-c3ccccc3)c2c1=O
inactive: [2] 98 % of control | [3] 96 % of control | dose: 400.0 mg/kg/injection, schedule: Q01DX001 (ip), vehicle: saline with Tween-80 93 % of control

O=c1[nH]cnc2c1ncn2-c1ccc(N(CCO)CCO)cc1
inactive: dose: 50.0 mg/kg/injection, schedule: Q01DX001 (ip), vehicle: carboxymethylcellulose (CMC) 98 % of control | dose: 100.0 mg/kg/injection, schedule: Q01DX001 (ip), vehicle: carboxymethylcellulose (CMC) 115 % of control | dose: 200.0 mg/kg/injection, schedule: Q01DX001 (ip), vehicle: carboxymethylcellulose (CMC) 95 % of control | dose: 400.0 mg/kg/injection, schedule: Q01DX001 (ip), vehicle: carboxymethylcellulose (CMC) 98 % of control

COc1ccc(NC(=O)c2c(Br)c(Br)c(Br)c(Br)c2C(=O)O)c(Cl)c1
inactive: dose: 100.0 mg/kg/injection, schedule: Q01DX009 (ip), vehicle: Klucel (hydroxypropylcellulose) (HPC) 96 % of control | dose: 200.0 mg/kg/injection, schedule: Q01DX009 (ip), vehicle: Klucel (hydroxypropylcellulose) (HPC) 93 % of control

COC(=O)CS(=O)(=O)C/C(=N\Nc1ccccc1)c1ccccc1
inactive: dose: 75.0 mg/kg/injection, schedule: Q01DX001 (ip), vehicle: saline 104 % of control | dose: 150.0 mg/kg/injection, schedule: Q01DX001 (ip), vehicle: saline 92 % of control | dose: 300.0 mg/kg/injection, schedule: Q01DX001 (ip), vehicle: saline 98 % of control

CCOC(=O)C1OC12CCC(C(C)(C)C)CC2 (stereo not given)
inactive: [1] 95 % of control | dose: 100.0 mg/kg/injection, schedule: Q04DX002 (ip), vehicle: saline with Tween-80 100 % of control | [5] 91 % of control | dose: 200.0 mg/kg/injection, schedule: Q04DX002 (ip), vehicle: saline with Tween-80 100 % of control | [7] 88 % of control | dose: 400.0 mg/kg/injection, schedule: Q04DX002 (ip), vehicle: saline with Tween-80 93 % of control

COc1c2c([n+](C)c3c(OC)cccc13)OC(C(C)C)C2 (stereo not given)
inactive: dose: 0.5 mg/kg/injection, schedule: Q01DX009 (ip), vehicle: acetone 100 % of control | dose: 0.75 mg/kg/injection, schedule: Q01DX009 (ip), vehicle: saline 103 % of control | dose: 1.0 mg/kg/injection, schedule: Q01DX001 (ip), vehicle: saline 96 % of control | dose: 1.0 mg/kg/injection, schedule: Q01DX009 (ip), vehicle: acetone 120 % of control | dose: 1.0 mg/kg/injection, schedule: Q04DX003 (ip), vehicle: Klucel (hydroxypropylcellulose) (HPC) 97 % of control | dose: 1.0 mg/kg/injection, schedule: Q04DX003 (ip), vehicle: acetone 108 % of control | dose: 1.5 mg/kg/injection, schedule: Q01DX009 (ip), vehicle: saline 92 % of control | dose: 2.0 mg/kg/injection, schedule: Q01DX001 (ip), vehicle: saline 96 % of control | dose: 2.0 mg/kg/injection, schedule: Q04DX003 (ip), vehicle: Klucel (hydroxypropylcellulose) (HPC) 105 % of control | dose: 2.0 mg/kg/injection, schedule: Q04DX003 (ip), vehicle: acetone 119 % of control | dose: 4.0 mg/kg/injection, schedule: Q01DX001 (ip), vehicle: saline 98 % of control

O=C(NC(=S)Nc1ccccc1C(=O)O)c1ccccc1
inactive: dose: 50.0 mg/kg/injection, schedule: Q01DX009 (ip), vehicle: saline sonified 96 % of control | dose: 100.0 mg/kg/injection, schedule: Q04DX003 (ip), vehicle: saline sonified 95 % of control | dose: 200.0 mg/kg/injection, schedule: Q01DX009 (ip), vehicle: saline sonified 94 % of control | dose: 200.0 mg/kg/injection, schedule: Q04DX003 (ip), vehicle: saline sonified 95 % of control

Cc1ccc(CO)cc1
inactive: dose: 100.0 mg/kg/injection, schedule: Q01DX009 (ip), vehicle: saline 97 % of control | dose: 100.0 mg/kg/injection, schedule: Q04DX003 (ip), vehicle: saline 106 % of control | dose: 200.0 mg/kg/injection, schedule: Q04DX003 (ip), vehicle: saline 114 % of control | dose: 400.0 mg/kg/injection, schedule: Q01DX009 (ip), vehicle: saline 92 % of control | dose: 400.0 mg/kg/injection, schedule: Q04DX003 (ip), vehicle: saline 106 % of control

CC(=O)OC1CCC2(C)C(=CC=C3C2CCC2(C)C3CCC2C(C)CCCC(C)C)C1 (stereo not given)
inactive: dose: 100.0 mg/kg/injection, schedule: Q01DX001 (ip), vehicle: Klucel (hydroxypropylcellulose) (HPC) 97 % of control | dose: 200.0 mg/kg/injection, schedule: Q01DX001 (ip), vehicle: Klucel (hydroxypropylcellulose) (HPC) 87 % of control | dose: 400.0 mg/kg/injection, schedule: Q01DX001 (ip), vehicle: Klucel (hydroxypropylcellulose) (HPC) 87 % of control

CCCC(Br)C(=O)OCC (stereo not given)
inactive: [4] 101 % of control | [6] 96 % of control

Cc1ccc(S(=O)(=O)OC2C(=O)C(C)(C)CCC2(C)C)cc1 (stereo not given)
inactive: dose: 100.0 mg/kg/injection, schedule: Q04DX002 (ip), vehicle: Klucel (hydroxypropylcellulose) (HPC) 100 % of control | dose: 200.0 mg/kg/injection, schedule: Q04DX002 (ip), vehicle: Klucel (hydroxypropylcellulose) (HPC) 100 % of control | dose: 400.0 mg/kg/injection, schedule: Q04DX002 (ip), vehicle: Klucel (hydroxypropylcellulose) (HPC) 97 % of control

N#Cc1ccc(Cl)cc1.N#Cc1ccc(Cl)cc1.[Cl][Pt][Cl]
inactive: dose: 6.25 mg/kg/injection, schedule: Q04DX003 (ip), vehicle: water 109 % of control | dose: 12.5 mg/kg/injection, schedule: Q04DX003 (ip), vehicle: water 105 % of control | dose: 25.0 mg/kg/injection, schedule: Q04DX003 (ip), vehicle: water 107 % of control | dose: 50.0 mg/kg/injection, schedule: Q04DX003 (ip), vehicle: water 109 % of control

c1ccc(CC(CNCC2C(c3ccccc3)C2c2ccccc2)c2ccccc2)cc1 (stereo not given)
inactive: dose: 12.5 mg/kg/injection, schedule: Q04DX002 (ip), vehicle: saline with Tween-80 96 % of control | dose: 25.0 mg/kg/injection, schedule: Q04DX002 (ip), vehicle: saline with Tween-80 93 % of control | dose: 50.0 mg/kg/injection, schedule: Q04DX002 (ip), vehicle: saline with Tween-80 90 % of control
